Source: ChEMBL document CHEMBL1201862, “PubChem BioAssay data set” (2004)
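Exposure lasted 48 hours, with cells grown in 96-well plates and compounds tested at five concentrations. Abbreviation: GI50, concentration required for 50% inhibition of growth.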 The source made the active and inactive calls. Rule as the data show it: active = GI50 up to about 1.1 µM and inactive = higher.

Columns and labels:
Experiment in all cases: NCI tumour cell line growth inhibition, 48 h
[1] = system: DMS-273
[2] = system: LOX IMVI
[3] = system: SK-MEL-28
[4] = system: KM12
[5] = system: K562
[6] = system: Malme-3M
[7] = system: COLO 205
[8] = system: NCI-H226
[9] = system: TK-10
[10] = system: MOLT-4
[11] = system: SW-620
[12] = system: UO-31
[13] = system: HL-60
[14] = system: EKVX
[15] = system: HOP-62
[16] = system: SNB-19
[17] = system: OVCAR-8
[18] = system: U-251
[19] = system: NCI-H23
[20] = system: 786-0
[21] = system: M19-MEL
[22] = system: A549
[23] = system: SN12C
[24] = system: SNB-75
[25] = system: HCT-116
[26] = system: HOP-92
[27] = system: SF-295
[28] = system: SF-268
[29] = system: OVCAR-3
[30] = system: IGROV-1
[31] = system: CCRF-CEM
[32] = system: HOP-18
[33] = system: A498
[34] = system: SK-OV-3
[35] = system: HCC 2998
[36] = system: SF-539
[37] = system: SK-MEL-2
[38] = system: LXFL 529
[39] = system: NCI-H522
[40] = system: M14
[41] = system: SR
[42] = system: RPMI-8226
[43] = system: OVCAR-5
[44] = system: DLD-1
[45] = system: NCI-H460
[46] = system: UACC-62
[47] = system: OVCAR-4
[48] = system: HCT-15
[49] = system: SK-MEL-5
[50] = system: UACC-257
[51] = system: HT-29
[52] = system: SNB-78
[53] = system: DMS-114
[54] = system: RXF 393
[55] = system: CAKI-1
[56] = system: ACHN
[57] = system: KM-20L2

SMILES: C/N=C1\S/C(=N\c2ccc(N(C)C)cc2)N1C
- GI50 [1]: 54.1 µM (inactive)
- GI50 [2]: 46 µM (inactive)
- GI50 [3]: 38.8 µM (inactive)
- GI50 [4]: 57.1 µM (inactive)
- GI50 [5]: 29.7 µM (inactive)
- GI50 [6]: 39.9 µM (inactive)
- GI50 [7]: 39.4 µM (inactive)
- GI50 [8]: 52.1 µM (inactive)
- GI50 [9]: 55.7 µM (inactive)
- GI50 [10]: 43 µM (inactive)
- GI50 [11]: 38.1 µM (inactive)
- GI50 [12]: 31.6 µM (inactive)
- GI50 [13]: 34.4 µM (inactive)
- GI50 [14]: 25 µM (inactive)
- GI50 [15]: > 100 µM (inactive)
- GI50 [16]: 42.2 µM (inactive)
- GI50 [17]: 35.1 µM (inactive)
- GI50 [18]: 33.9 µM (inactive)
- GI50 [19]: 32.1 µM (inactive)
- GI50 [20]: 42.8 µM (inactive)
- GI50 [21]: 38 µM (inactive)
- GI50 [22]: 43 µM (inactive)
- GI50 [23]: 31 µM (inactive)
- GI50 [24]: 19 µM (inactive)
- GI50 [25]: 32.7 µM (inactive)
- GI50 [26]: 21.8 µM (inactive)
- GI50 [27]: 40.4 µM (inactive)
- GI50 [28]: 24.9 µM (inactive)
- GI50 [29]: 39.4 µM (inactive)
- GI50 [30]: 51.8 µM (inactive)
- GI50 [31]: 36.1 µM (inactive)
- GI50 [32]: 35 µM (inactive)
- GI50 [33]: 23 µM (inactive)
- GI50 [34]: 26.8 µM (inactive)
- GI50 [35]: 33.2 µM (inactive)
- GI50 [36]: 32.1 µM (inactive)
- GI50 [37]: 33.9 µM (inactive)
- GI50 [38]: 40.5 µM (inactive)
- GI50 [39]: 25.8 µM (inactive)
- GI50 [40]: 33.1 µM (inactive)
- GI50 [41]: 46.1 µM (inactive)
- GI50 [42]: 34.5 µM (inactive)
- GI50 [43]: 75.5 µM (inactive)
- GI50 [44]: 29.8 µM (inactive)
- GI50 [45]: 36.3 µM (inactive)
- GI50 [46]: 33.5 µM (inactive)
- GI50 [47]: 44.1 µM (inactive)
- GI50 [48]: 30.5 µM
- GI50 [49]: 25.2 µM (inactive)
- GI50 [50]: 47.8 µM (inactive)
- GI50 [51]: 28.2 µM (inactive)
- GI50 [52]: 22.9 µM (inactive)
- GI50 [53]: 17.9 µM (inactive)

SMILES: CCOC(=O)/C(O)=C/c1cc(OC)cc(=O)o1
- GI50 [1]: > 100 µM (inactive)
- GI50 [2]: > 100 µM (inactive)
- GI50 [3]: > 100 µM (inactive)
- GI50 [4]: > 100 µM (inactive)
- GI50 [5]: > 100 µM (inactive)
- GI50 [6]: > 100 µM (inactive)
- GI50 [7]: > 100 µM (inactive)
- GI50 [8]: > 100 µM (inactive)
- GI50 [9]: > 100 µM (inactive)
- GI50 [10]: > 100 µM (inactive)
- GI50 [11]: > 100 µM (inactive)
- GI50 [12]: > 100 µM (inactive)
- GI50 [13]: > 100 µM (inactive)
- GI50 [14]: > 100 µM (inactive)
- GI50 [16]: > 100 µM (inactive)
- GI50 [54]: > 100 µM (inactive)
- GI50 [17]: > 100 µM (inactive)
- GI50 [18]: > 100 µM (inactive)
- GI50 [19]: > 100 µM (inactive)
- GI50 [20]: > 100 µM (inactive)
- GI50 [21]: > 100 µM (inactive)
- GI50 [22]: > 100 µM (inactive)
- GI50 [23]: > 100 µM (inactive)
- GI50 [24]: > 100 µM (inactive)
- GI50 [25]: > 100 µM (inactive)
- GI50 [26]: > 100 µM (inactive)
- GI50 [27]: > 100 µM (inactive)
- GI50 [28]: > 100 µM (inactive)
- GI50 [29]: > 100 µM (inactive)
- GI50 [30]: > 100 µM (inactive)
- GI50 [31]: > 100 µM (inactive)
- GI50 [32]: > 100 µM (inactive)
- GI50 [33]: > 100 µM (inactive)
- GI50 [34]: > 100 µM (inactive)
- GI50 [35]: > 100 µM (inactive)
- GI50 [36]: > 100 µM (inactive)
- GI50 [37]: > 100 µM (inactive)
- GI50 [55]: > 100 µM (inactive)
- GI50 [38]: > 100 µM (inactive)
- GI50 [39]: > 100 µM (inactive)
- GI50 [40]: > 100 µM (inactive)
- GI50 [56]: > 100 µM (inactive)
- GI50 [42]: > 100 µM (inactive)
- GI50 [43]: > 100 µM (inactive)
- GI50 [44]: > 100 µM (inactive)
- GI50 [45]: > 100 µM (inactive)
- GI50 [46]: > 100 µM (inactive)
- GI50 [47]: > 100 µM (inactive)
- GI50 [57]: > 100 µM (inactive)
- GI50 [48]: > 100 µM
- GI50 [49]: > 100 µM (inactive)
- GI50 [50]: > 100 µM (inactive)
- GI50 [51]: > 100 µM (inactive)
- GI50 [52]: > 100 µM (inactive)
- GI50 [53]: > 100 µM (inactive)

SMILES: COc1ccc(/C=C(\Cl)c2ccc(OC)cc2)cc1
- GI50 [1]: > 100 µM (inactive)
- GI50 [2]: > 100 µM (inactive)
- GI50 [3]: > 100 µM (inactive)
- GI50 [4]: > 100 µM (inactive)
- GI50 [5]: > 100 µM (inactive)
- GI50 [6]: > 100 µM (inactive)
- GI50 [7]: > 100 µM (inactive)
- GI50 [8]: > 100 µM (inactive)
- GI50 [9]: > 100 µM (inactive)
- GI50 [10]: > 100 µM (inactive)
- GI50 [11]: > 100 µM (inactive)
- GI50 [12]: > 100 µM (inactive)
- GI50 [13]: > 100 µM (inactive)
- GI50 [14]: > 100 µM (inactive)
- GI50 [15]: > 100 µM (inactive)
- GI50 [16]: > 100 µM (inactive)
- GI50 [17]: > 100 µM (inactive)
- GI50 [18]: > 100 µM (inactive)
- GI50 [19]: > 100 µM (inactive)
- GI50 [20]: > 100 µM (inactive)
- GI50 [21]: > 100 µM (inactive)
- GI50 [22]: > 100 µM (inactive)
- GI50 [23]: > 100 µM (inactive)
- GI50 [24]: > 100 µM (inactive)
- GI50 [25]: > 100 µM (inactive)
- GI50 [26]: > 100 µM (inactive)
- GI50 [28]: > 100 µM (inactive)
- GI50 [29]: > 100 µM (inactive)
- GI50 [31]: > 100 µM (inactive)
- GI50 [33]: > 100 µM (inactive)
- GI50 [34]: 0.325 µM (active)
- GI50 [35]: > 100 µM (inactive)
- GI50 [36]: > 100 µM (inactive)
- GI50 [55]: > 100 µM (inactive)
- GI50 [38]: > 100 µM (inactive)
- GI50 [39]: > 100 µM (inactive)
- GI50 [40]: > 100 µM (inactive)
- GI50 [56]: > 100 µM (inactive)
- GI50 [41]: > 100 µM (inactive)
- GI50 [42]: > 100 µM (inactive)
- GI50 [43]: > 100 µM (inactive)
- GI50 [44]: > 100 µM (inactive)
- GI50 [45]: > 100 µM (inactive)
- GI50 [46]: 38.8 µM (inactive)
- GI50 [47]: > 100 µM (inactive)
- GI50 [57]: > 100 µM (inactive)
- GI50 [49]: > 100 µM (inactive)
- GI50 [50]: > 100 µM (inactive)
- GI50 [53]: > 100 µM (inactive)
